{
  "source": "patent US9101566B2",
  "about": "“Fermentation product of cereal plant-derived material and immunomodulator” (KIRIN HOLDINGS KABUSHIKI KAISHA, priority 2009, dated 2015)",
  "type_in_all_cases": "cell-based",
  "key": {"[1]": {"system": "human DCs from peripheral blood CD14-positive cells", "experiment": "Human regulatory DC-inducing activity of 14-DHE (Example 16)", "conditions": "14-DHE 1, 3 or 10 μM; ergosterol 10 μM; LPS/IFN-γ or cytokine cocktail 24 h", "method": "Mononuclear cells were prepared from human peripheral blood by density-gradient centrifugation using Ficoll-Paque (GE Healthcare, Japan). These cells were subjected to positive selection using anti-human CD14 MACS beads (Miltenyi Biotec), so that CD14-positive cells were obtained. CD14-positive cells were cultured in RPMI1640 media (containing 10% FBS (Invitrogen), 50 μmol/L 2-mercaptoethanol (Wako Pure Chemical Industries, Japan), 50 U/mL penicillin, and 50 μg/mL streptomycin (Gibco) (Sigma Aldrich)) supplemented with recombinant human GM-CSF (800 U/mL, Leukine, Berlex) and recombinant human IL-4 (100 ng/mL, Peprotech). During culture, medium exchange was performed once every 2 days. On day 7 of culture, 14-DHE was added at a concentration of 1 μM, 3 μM, or 10 μM. To a control, 10 μM ergosterol, which was a related substance, was added. Also, to a negative control, 1% ethanol, which was a solvent for 14-DHE, was added. The cells were recovered on day 8 of culture, counted, and then suspended at a density of 3×10^5 cells/mL in the above media. To cell suspensions, 1 μg/mL LPS and 100 ng/mL IFN-γ (both, Sigma Aldrich), or cytokine cocktail (1 μg/mL PGE2 (Sigma Aldrich), 10 ng/mL TNF-α, 2 μg/mL IL-6, and 10 ng/mL IL-1β (3 (all, BD Bioscience)) were added, followed by 24-hour culture. After culture, the cells were stained for CD86, HLA-DR, and CD80. Antibodies used were all produced by BD Bioscience. The gate of DCs was set by FSC and SSC, and the expression levels of these cell surface markers were analyzed."}, "[2]": {"system": "DCs induced from C57BL/6 mouse bone marrow cells with Flt-3L", "experiment": "Comparison with known regulatory DC-inducing agents, DC induction system using Flt-3L (Example 3)", "conditions": "Flt-3L system, extract and γ-oryzanol 50 μg/mL, LPS 1 ng/mL", "method": "(§1) The hexane fraction (No. 8) (in Table 1) prepared in Example 1 from wheat bran fermented with koji was used for the test. Since GM-CSF is used as a DC-inducing agent in the above-mentioned reports concerning rapamycin and IL-10/TGF-β, DCs were induced in each system of GM-CSF and Flt-3L and then each regulatory DC-inducing agent was evaluated.\nIn a manner similar to the experimental method in Example 2, bone marrow cells were prepared from C57BL/6 mouse thigh bone, the cells were suspended at 1×10^6 cells/mL in a medium, and then Flt-3L was added at 100 ng/mL. An extract from wheat bran fermented with koji, γ-oryzanol (Wako Pure Chemical Industries, Japan), or IL-10/TGF-β (produced by R&D systems and Peprotech, respectively) were added at 50 μg/mL for the former two or at 20 ng/mL for the latter two on day 0 after the initiation of culture. Rapamycin (Wako Pure Chemical Industries, Japan) was added at 10 ng/mL on day 3 after the initiation of culture. Culture was performed for 7 days and, at the time point of the last 24 hours of culture, LPS was added in a final concentration of 1 ng/mL.\nRegarding an evaluation method, expression intensities of the cell-surface DC activation markers CD40, CD86 and MHCII and the suppression marker PD1L were evaluated by analysis using a flow cytometer. A gate was set on mDCs similarly to Example 1 and then analysis was conducted. Staining was performed using anti-CD11c-APC, anti-CD11b-APC-Cy7, anti-B220-PerCP, anti-CD40-FITC and anti-CD86-PE, or anti-CD11c-APC, anti-CD11b-APC-Cy7, anti-B220-PerCP, anti-MHCII-FITC, and anti-PD1L-PE (all available from Becton, Dickinson and Company) and then analysis was conducted."}, "[3]": {"system": "DCs induced from C57BL/6 mouse bone marrow cells with GM-CSF", "experiment": "Comparison with known regulatory DC-inducing agents, DC induction system using GM-CSF (Example 3)", "conditions": "50 μg/mL", "method": "as §1\nIn a manner similar to the experimental method in […], bone marrow cells were prepared from C57BL/6 mouse thigh bone, the cells were suspended at a concentration of 2×10^5 cells/mL in a medium, and then 20 ng/ml GM-CSF (R&D systems) was added. The concentration and timing of the added test substance were similar to those in the above examples.\nRegarding an evaluation method, expression intensities of the cell-surface DC activation markers CD40, CD86 and MHCII and the suppression marker PD1L were evaluated by analysis using a flow cytometer. In the case of the DC induction using GM-CSF, only mDC was generated. As in the case of Flt-3L, a gate was set on mDCs defined by CD11c^+CD11b^+B220^− and then analysis was conducted."}, "[4]": {"system": "dendritic cells induced from C57BL/6 mouse bone marrow cells with Flt-3L (mDCs, CD11c+CD11b+)", "experiment": "Regulatory DC-inducing activity of 14-dehydroergosterol (Example 9)", "method": "Regulatory DC induction activity was evaluated for 14-dehydroergosterol (14-DHE) isolated and purified from wheat bran fermented with koji as described above and subjected to structural determination. As controls, ergosterol (Wako Pure Chemical Industries, Japan) and 9(11)-dehydroergosterol (9(11)-DHE) (Sigma-Aldrich Corp.), which are ergosterol-related substances, were used. Also, as conjugated linoleic acid (CLA) that was reported in connection with the inhibition of DC activation in the past, CLA (9Z, 11E) and CLA (10E, 12Z) (both, Cayman Chemical), and linoleic acid (Wako Pure Chemical Industries, Japan) were also subjected to activity determination (J. Immunol., 175(8): 4990-8, Oct. 15, 2005). As negative controls, a sample (none) to which no compound had been administered and a sample (ctrl) to which only LPS had been administered were also subjected to activity determination.\nIn a manner similar to Example 2, bone marrow cells were prepared from C57BL/6 mouse thigh bone, and then dendritic cells were induced using Flt-3L. Each test substance was added simultaneously with the initiation of culture at a concentration of 1 μM, 5 μM, or 10 μM. Seven days later, LPS (from Salmonella typhosa) (Sigma-Aldrich Corp.) was added at 5 ng/mL and then 24 hours later the cells were recovered. Subsequently, the cells were stained for the following cell markers and then subjected to flow cytometry analysis. All antibodies used were produced by Becton, Dickinson and Company. CD11c^+CD11b^+ was set as a gate for mDCs and then the expression levels of CD40, CD80, CD86, I-A/I-E, and ICOS-L were measured. Also, IL-12p40 and IL-10 in culture supernatants were measured by ELISA."}},
  "data": [
    {"molecule": "CC(C)[C@@H](C)/C=C/[C@@H](C)[C@H]1CC[C@H]2C3=CC=C4C[C@@H](O)CC[C@]4(C)[C@H]3CC[C@]12C", "note": "[Ergosterol, ergosterol, reference compound]", "values": [
      {"measurement": "expression level of CD80 on human DCs", "setting": "[1]", "result": "did not affect"},
      {"measurement": "expression level of CD86 on human DCs", "setting": "[1]", "result": "did not affect"},
      {"measurement": "expression level of MHC class II molecule HLA-DR on human DCs", "setting": "[1]", "result": "did not affect"}
    ]},
    {"molecule": "γ-oryzanol", "values": [
      {"measurement": "MHCII expression in response to LPS stimulation", "setting": "[2]", "result": "no fluctuation was observed"},
      {"measurement": "CD40 expression in response to LPS stimulation", "setting": "[2]; rapamycin 10 ng/mL from day 3", "result": "no fluctuation was observed"},
      {"measurement": "CD86 expression in response to LPS stimulation", "setting": "[2]; rapamycin 10 ng/mL from day 3", "result": "no fluctuation was observed"},
      {"measurement": "expression of DC activation markers in response to LPS stimulation", "setting": "[3]", "result": "strong increases were observed"}
    ]},
    {"molecule": "CC(C)[C@@H](C)C=C[C@@H](C)[C@H]1CC[C@H]2C3=CC=C4C[C@@H](O)CC[C@]4(C)C3=CC[C@]12C", "note": "[9(11)-DHE, 9(11)-dehydroergosterol, reference compound]", "values": [
      {"measurement": "expression of inflammatory cytokine IL-12p40 (ELISA)", "setting": "[4]; 1, 5 or 10 μM, LPS 5 ng/mL, culture supernatant", "result": "a slight decrease was observed"},
      {"measurement": "expression levels of I-A/I-E, CD40, CD80 and CD86", "setting": "[4]; maximum concentration (10 μM), LPS 5 ng/mL 24 h", "result": "slight decrease"}
    ]}
  ]
}
